pIC50: −log10 of the molar value.
What was measured:
[1] = system: cancer cell line KM12C, in which RON is activated; assay: Cell-killing efficacy in RON-activated cancer cell line (trypan blue); format: cell-based; details: Homo sapiens, 48 hours, trypan blue, n=2, read-out: Cell death (%) Cancer cell line KM12C
Description: Experimental Example 3: Measurement of Cell-Killing Efficacy of Example Compounds in RON-Activated Cancer Cell Line
The cancer cell line KM12C (80015, KCLB, MEM+10% FBS), in which RON is activated, was dispensed into each 60 mm^2 dish at 1×10^5 cells. After 24 hours, the dish was treated with each of the example compounds at a concentration of 1 μM or 5 μM while performing medium exchange, and then reaction was allowed to proceed for 48 hours. After 48 hours, centrifugation was performed for 4 minutes at 1,500 rpm to collect cells and cell fluid. Thereafter, living cells and dead cells were quantified (n=2) using a trypan blue solution (15250-061, Gibco), and statistical analysis was performed using Excel-T-test. Here, as a negative control, only a solvent (0.100 DMSO) was used; and as a positive control, N-(4-(2-amino-3-chloropyridin-4-yloxy)-3-fluorophenyl)-4-ethoxy-1-(4-fluorophenyl)-2-oxo-1,2-dihydropyridine-3-carboxamide, which is the compound of Example 1 in WO 2008/058229 A1, was used.

RON tyrosine kinase = target: T1, RON tyrosine kinase (Homo sapiens, UniProt Q04912); assay: Enzyme inhibitory activity against RON tyrosine kinase (TR-FRET); format: biochemical; details: RON (Carna Bioscience)
T1 construct: purchased Carna Bioscience
Description: Experimental Example 1: Measurement of Enzyme Inhibitory Activity Against RON Tyrosine Kinase
To measure enzyme inhibitory activity of the example compounds against RON, IC50 values of the compounds were measured using fluorescence resonance energy transfer (FRET).
Specifically, first, RON (Carna Bioscience) was diluted in a kinase assay buffer (50 mM HEPES pH 7.5, 1 mM EGTA, 10 mM MgCl2, 2 mM DTT, and 0.01% Tween-20) to be at a concentration (0.4 nM) that is twice the final reaction concentration. The dilute was added to a 384-well-plate at 5 μl per well. Each of the example compounds was prepared at a concentration of 1 mM in 100% DMSO and diluted 8 times in a stepwise manner through 10-fold dilution. Each compound was diluted in a kinase assay buffer to be at a concentration that is 4 times the final reaction concentration. The dilute was added to a 384-well-plate at 2.5 μl per well, and incubation was performed at room temperature for 15 minutes.
Thereafter, an ATP solution (Sigma Aldrich) prepared at a concentration of 0.25 M was diluted in a kinase assay buffer to be at a concentration (60 μM) that is 4 times the final reaction concentration. Dilution of a tyrosine peptide substrate (Perkin-Elmer) was performed therein to be at a concentration (400 nM) that is 4 times the final reaction concentration. The dilute was added to a 384-well-plate at 2.5 µl per well. Reaction was allowed to proceed for 60 minutes by incubating the 384-well-plate at room temperature. Thereafter, EDTA (Sigma Aldrich) was diluted in a TR-FRET detection buffer (Perkin-Elmer) to be at a concentration (20 mM) that is twice the final reaction concentration. Dilution of a Europium-containing phosphotyrosine antibody (Perkin-Elmer) was performed in the diluted EDTA solution to be at a concentration (4 nM) that is twice the final reaction concentration, so that a stop solution for RON reaction was prepared.
The stop solution was added to the 384-well-plate at 10 μl per well to quench the reaction, and incubation was performed at room temperature for 60 minutes. Then, the 384-well-plate was read on a Victor X5 (Perkin-Elmer) plate reader. Here, the excitation wavelength was 340 nm, and the emission wavelengths were 620 nm and 665 nm. An IC50 value of the compound was derived using GraphPad Prism 5 program, in which the IC50 was derived by expressing emission energy at the wavelength of 665 nm as a function of the compound concentration.

[2] = system: cancer cell line KM12C, in which RON is activated; assay: Cell growth inhibitory ability in RON-activated cancer cell line (MTS); format: cell-based; details: Homo sapiens, 48 hours, absorbance 490 nm
Description: Experimental Example 2: Identification of Cell Growth Inhibitory Ability of Example Compounds in RON-Activated Cancer Cell Line
The cancer cell line KM12C (80015, KCLB, MEM+1K° FBS), in which RON is activated, was treated with each of the example compounds at a concentration of 10 μM, and then reaction was allowed to proceed for 48 hours. 24 hours after completion of the reaction, 20 μl of MTS solution (CellTiter 96 Aqueous One Solution Cell Proliferation Assay, product number: G3581, Promega) was added to each well, and then incubation was performed at a temperature of 37° C. in 50 CO2 incubator for 4 hours. Then, an IC50 value of the compound was derived by measuring its absorbance value at a wavelength of 490 nm using a Victor X5 plate reader. Here, as a positive control, N-(4-(2-amino-3-chloropyridin-4-yloxy)-3-fluorophenyl)-4-ethoxy-1-(4-fluorophenyl)-2-oxo-1,2-dihydropyridine-3-carboxamide, which is the compound of Example 1 in WO 2008/058229 A1, was used.

T1 sequence (Q04912 25-1400): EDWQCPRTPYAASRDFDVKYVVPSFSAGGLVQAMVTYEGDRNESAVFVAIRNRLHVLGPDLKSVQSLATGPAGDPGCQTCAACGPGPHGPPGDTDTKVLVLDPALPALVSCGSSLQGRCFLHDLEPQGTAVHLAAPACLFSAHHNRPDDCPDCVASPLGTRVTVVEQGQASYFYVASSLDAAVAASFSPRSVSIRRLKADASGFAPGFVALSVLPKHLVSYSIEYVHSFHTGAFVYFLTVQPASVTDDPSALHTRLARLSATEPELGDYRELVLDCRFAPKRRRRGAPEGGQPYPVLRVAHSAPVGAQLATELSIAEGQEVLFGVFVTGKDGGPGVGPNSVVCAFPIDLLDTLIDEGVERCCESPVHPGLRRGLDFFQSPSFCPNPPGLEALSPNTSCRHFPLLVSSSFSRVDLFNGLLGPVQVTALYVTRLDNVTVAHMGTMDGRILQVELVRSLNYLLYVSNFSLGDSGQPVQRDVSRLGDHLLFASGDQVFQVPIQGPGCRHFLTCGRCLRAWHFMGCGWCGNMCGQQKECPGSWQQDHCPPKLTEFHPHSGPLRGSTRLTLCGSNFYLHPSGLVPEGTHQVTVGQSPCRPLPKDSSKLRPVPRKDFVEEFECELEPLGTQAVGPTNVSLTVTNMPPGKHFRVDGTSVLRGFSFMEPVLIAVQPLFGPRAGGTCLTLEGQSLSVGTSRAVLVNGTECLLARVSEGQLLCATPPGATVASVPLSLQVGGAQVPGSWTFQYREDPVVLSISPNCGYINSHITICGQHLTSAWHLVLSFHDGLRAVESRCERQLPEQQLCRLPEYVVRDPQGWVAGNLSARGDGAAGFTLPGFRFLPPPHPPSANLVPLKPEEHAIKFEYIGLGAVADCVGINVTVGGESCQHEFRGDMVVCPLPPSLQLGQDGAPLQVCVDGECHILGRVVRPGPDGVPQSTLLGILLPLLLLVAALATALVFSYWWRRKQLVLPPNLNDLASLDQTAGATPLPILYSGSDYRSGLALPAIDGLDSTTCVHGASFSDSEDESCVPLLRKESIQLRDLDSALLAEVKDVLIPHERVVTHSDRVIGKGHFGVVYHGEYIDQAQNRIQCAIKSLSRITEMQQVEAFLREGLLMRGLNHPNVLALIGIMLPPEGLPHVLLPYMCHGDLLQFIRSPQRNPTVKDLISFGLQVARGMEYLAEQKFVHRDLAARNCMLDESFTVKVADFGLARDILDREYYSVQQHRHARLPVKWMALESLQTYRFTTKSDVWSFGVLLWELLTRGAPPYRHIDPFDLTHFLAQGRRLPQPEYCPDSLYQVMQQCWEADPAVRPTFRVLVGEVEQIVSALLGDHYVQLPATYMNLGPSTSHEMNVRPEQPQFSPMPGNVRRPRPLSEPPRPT

pIC50 (RON tyrosine kinase)	pIC50 [2]	Compound	cytotoxicity at 1 µM [1] [%]	cytotoxicity at 5 µM [1] [%]
9.04	–	Cn1cc(-c2cc3nccc(Oc4ccc(NC(=O)c5c6c(cn(-c7ccc(F)cc7)c5=O)CCO6)cc4F)c3s2)cn1 [Example 10, N-(3-Fluoro-4-((2-(1-methyl-1H-pyrazol-4-yl)thieno[3,2-b]pyridin-7-yl)oxy)phenyl)-5-(4-fluorophenyl)-6-oxo-2,3,5,6-tetrahydrofuro[3,2-c]pyridine-7-carboxamide]	22	21.9
–	8.70	COC1CN(Cc2ccc(-c3cc4nccc(Oc5ccc(NC(=O)c6c7c(cn(-c8ccc(F)cc8)c6=O)CCO7)cc5F)c4s3)nc2)C1 [Example 14, N-(3-Fluoro-4-((2-(5-((3-methoxyazetidin-1-yl)methyl)pyridin-2-yl)thieno[3,2-b]pyridin-7-yl)oxy)phenyl)-5-(4-fluorophenyl)-6-oxo-2,3,5,6-tetrahydrofuro[3,2-c]pyridine-7-carboxamide]	13.6	21.5
–	9.00	COC1(C)CN(Cc2ccc(-c3cc4nccc(Oc5ccc(NC(=O)c6c7c(cn(-c8ccc(F)cc8)c6=O)CCO7)cc5F)c4s3)nc2)C1 [Example 16, N-(3-Fluoro-4-((2-(5-((3-methoxy-3-methylazetidin-1-yl)methyl)pyridin-2-yl)thieno[3,2-b]pyridin-7-yl)oxy)phenyl)-5-(4-fluorophenyl)-6-oxo-2,3,5,6-tetrahydrofuro[3,2-c]pyridine-7-carboxamide]	20.4	24.2
8.73	–	COc1ccc2nccc(Oc3ccc(NC(=O)c4c5c(cn(-c6ccc(F)cc6)c4=O)CCO5)cc3F)c2c1 [Example 44, N-(3-Fluoro-4-((6-methoxyquinolin-4-yl)oxy)phenyl)-5-(4-fluorophenyl)-6-oxo-2,3,5,6-tetrahydrofuro[3,2-c]pyridine-7-carboxamide]	16	21.4
8.82	–	COc1ccc2c(Oc3ccc(NC(=O)c4c5c(cn(-c6ccc(F)cc6)c4=O)CCO5)cc3F)ccnc2c1 [Example 45, N-(3-Fluoro-4-((7-methoxyquinolin-4-yl)oxy)phenyl)-5-(4-fluorophenyl)-6-oxo-2,3,5,6-tetrahydrofuro[3,2-c]pyridine-7-carboxamide]	16.3	18.9
8.53	–	COc1cc2nccc(Oc3ccc(NC(=O)c4c5c(cn(-c6ccc(F)cc6)c4=O)CCO5)cc3F)c2cc1C(=O)N(C)C [Example 49, N-(4-((6-(Dimethylcarbamoyl)-7-methoxyquinolin-4-yl)oxy)-3-fluorophenyl)-5-(4-fluorophenyl)-6-oxo-2,3,5,6-tetrahydrofuro[3,2-c]pyridine-7-carboxamide]	9.98	11.2
8.93	–	CC1CCN(CCCOc2ccc3c(Oc4ccc(NC(=O)c5c6c(cn(-c7ccc(F)cc7)c5=O)CCO6)cc4F)ccnc3c2)CC1 [Example 162]	16.4	22.6

Further lines, the compound ahead of its results:

Compound	pIC50 (RON tyrosine kinase)	pIC50 [2]	cytotoxicity at 1 µM [1] [%]	cytotoxicity at 5 µM [1] [%]
O=C(Nc1ccc(Oc2ccnc3cc(-c4ccc(CN5CC(F)C5)cn4)sc23)c(F)c1)c1c2c(cn(-c3ccc(F)cc3)c1=O)CCO2 [Example 17, N-(3-Fluoro-4-((2-(5-((3-fluoroazetidin-1-yl)methyl)pyridin-2-yl)thieno[3,2-b]pyridin-7-yl)oxy)phenyl)-5-(4-fluorophenyl)-6-oxo-2,3,5,6-tetrahydrofuro[3,2-c]pyridine-7-carboxamide]	–	9.00	14	27.7
O=C(Nc1ccc(Oc2ccnc3cc(-c4ccc(CN5CC(F)(F)C5)cn4)sc23)c(F)c1)c1c2c(cn(-c3ccc(F)cc3)c1=O)CCO2 [Example 18, N-(4-((2-(5-((3,3-Difluoroazetidin-1-yl)methyl)pyridin-2-yl)thieno[3,2-b]pyridine-7-yl)oxy)-3-fluorophenyl)-5-(4-fluorophenyl)-6-oxo-2,3,5,6-tetrahydrofuro[3,2-c]pyridine-7-carboxamide]	–	8.52	10.9	11.3
N#CC1CN(Cc2ccc(-c3cc4nccc(Oc5ccc(NC(=O)c6c7c(cn(-c8ccc(F)cc8)c6=O)CCO7)cc5F)c4s3)nc2)C1 [Example 19, N-(4-((2-(5-((3-Cyanoazetidin-1-yl)methyl)pyridin-2-yl)thieno[3,2-b]pyridin-7-yl)oxy)-3-fluorophenyl)-5-(4-fluorophenyl)-6-oxo-2,3,5,6-tetrahydrofuro[3,2-c]pyridine-7-carboxamide]	–	9.00	15.7	21.9
CC1(O)CCN(Cc2ccc(-c3cc4nccc(Oc5ccc(NC(=O)c6c7c(cn(-c8ccc(F)cc8)c6=O)CCO7)cc5F)c4s3)nc2)C1 (stereo not drawn) [Example 24, N-(3-Fluoro-4-((2-(5-((3-hydroxy-3-methylpyrrolidin-1-yl)methyl)pyridin-2-yl)thieno[3,2-b]pyridin-7-yl)oxy)phenyl)-5-(4-fluorophenyl)-6-oxo-2,3,5,6-tetrahydrofuro[3,2-c]pyridine-7-carboxamide]	–	9.00	18.6	16.9
COC1CCN(Cc2ccc(-c3cc4nccc(Oc5ccc(NC(=O)c6c7c(cn(-c8ccc(F)cc8)c6=O)CCO7)cc5F)c4s3)nc2)C1 (stereo not drawn) [Example 25, N-(3-Fluoro-4-((2-(5-((3-methoxypyrrolidin-1-yl)methyl)pyridin-2-yl)thieno[3,2-b]pyridin-7-yl)oxy)phenyl)-5-(4-fluorophenyl)-6-oxo-2,3,5,6-tetrahydrofuro[3,2-c]pyridine-7-carboxamide]	–	9.00	17.5	21
O=C(Nc1ccc(Oc2ccnc3cc(-c4ccc(CN5CCC(F)C5)cn4)sc23)c(F)c1)c1c2c(cn(-c3ccc(F)cc3)c1=O)CCO2 (stereo not drawn) [Example 27, N-(3-Fluoro-4-((2-(5-((3-fluoropyrrolidin-1-yl)methyl)pyridin-2-yl)thieno[3,2-b]pyridin-7-yl)oxy)phenyl)-5-(4-fluorophenyl)-6-oxo-2,3,5,6-tetrahydrofuro[3,2-c]pyridine-7-carboxamide]	–	8.70	17.3	29
O=C(Nc1ccc(Oc2ccnc3cc(-c4ccc(CN5CCC(F)(F)C5)cn4)sc23)c(F)c1)c1c2c(cn(-c3ccc(F)cc3)c1=O)CCO2 [Example 28, N-(4-((2-(5-((3,3-Difluoropyrrolidin-1-yl)methyl)pyridin-2-yl)thieno[3,2-b]pyridine-7-yl)oxy)-3-fluorophenyl)-5-(4-fluorophenyl)-6-oxo-2,3,5,6-tetrahydrofuro[3,2-c]pyridine-7-carboxamide]	–	8.52	9.6	10.3

From patent US20220235064A1 (WELLMARKER BIO CO., LTD., priority 2019, published 2022)
